The values below come from article PMC6479349, “Derivatives of 3-Aminopyrazine-2-carboxamides: Synthesis, Antimicrobial Evaluation, and in Vitro Cytotoxicity” (Molecules, 2019).

For data set [1], the system named is Pseudomonas aeruginosa CCM 3955. Set-up: method as in PMID 26084645. The settings on record: previously published positional isomer; cited from earlier work.
The test system of data set [2] is Mycobacterium tuberculosis H37Rv. In words: Antimycobacterial microdilution broth MIC (Alamar Blue). The class given is cell-based. A general note: Dilution methods test growth across graded concentrations, often in twofold steps.
The subject of data set [3] is Mycobacterium smegmatis DSM 43465. In words: Antimycobacterial microdilution broth panel MIC (resazurin). The class given is cell-based. Conditions: for MIC: Mycolicibacterium smegmatis.
The subject of data set [4] is Ataxia Telangiectasia and Rad3 Related (ATR) protein kinase. The arrangement: method as in doi:10.1007/s00044-013-0665-6. Conditions: cited from earlier work.
Data set [5] can be described thus: Lipophilicity by reverse phase HPLC (log k). Conditions: RP-HPLC C18, MeOH 70% / H2O 30%, 30 °C.
Method: The mobile phase consisted of MeOH (HPLC grade, 70%) and H2O (HPLC-Milli-Q Grade, 30%). The flow rate was 1.0 mL/min, samples were injected in a volume of 20 µL, and the column temperature was 30 °C. Detection and monitoring wavelength were 210 nm and 270 nm, respectively. Retention times (Rt) were measured in minutes. The dead time of the system (Dt) was determined as the retention time of the KI methanolic solution. Capacity factors k for individual compounds were calculated according to the formula k = (Rt – Dt)/Dt. Capacity factor k was converted to log scale and (log k) and used as a measure of lipophilicity.
Data set [6] is described as follows: Solubility in the cytotoxicity testing medium. The settings on record: cytotoxicity assay medium; highest tested concentration 50 µM.
A short description of data set [7]: In vitro cytotoxicity, CellTiter 96 Aqueous One. The settings on record: human.
Data set [8] has as its system HepG2 cell line. Briefly: In vitro cytotoxicity, CellTiter 96 Aqueous One.
Data set [9] relates to M. kansasii CNCTC My 235/80. Briefly: Antimycobacterial microdilution broth MIC (Alamar Blue). The class given is cell-based, Mycobacterium kansasii.
Data set [10] relates to M. avium ssp. avium CNCTC My 80/72. Described as above. The class given is cell-based, Mycobacterium avium.
In data set [11] the test system is Mycobacterium aurum DSM 43999. In words: Antimycobacterial microdilution broth panel MIC (resazurin). The class given is cell-based. The settings on record: Mycolicibacterium aurum, DSM43999.
Data set [12] has as its system C. krusei CCM 8271. In words: Antifungal microdilution broth MIC. Conditions: Pichia kudriavzevii, CCM8271, 48 h, read-out: MIC C. krusei (standards).
The test system of data set [13] is C. parapsilosis CCM 8260. Briefly: Antifungal microdilution broth MIC. The settings on record: Lodderomyces parapsilosis, CCM8260, 48 h, read-out: MIC C. parapsilosis (standards).
For data set [14], the system named is C. tropicalis CCM 8264. In words: Antifungal microdilution broth MIC. Conditions: Candida tropicalis, CCM8264, 48 h, read-out: MIC C. tropicalis (standards).
Data set [15] concerns Aspergillus flavus CCM 8363. In words: Antifungal microdilution broth MIC. Conditions: CCM8363, 48 h, read-out: MIC Aspergillus flavus (standards).
Data set [16] has as its system Lichtheimia corymbifera CCM 8077. In words: Antifungal microdilution broth MIC. The settings on record: CCM8077, 48 h, read-out: MIC Lichtheimia corymbifera (standards).
The test system of data set [17] is Trichophyton interdigitale CCM 8377. Briefly: Antifungal microdilution broth MIC. The settings on record: Trichophyton interdigitale, CCM8377, 72 h, read-out: MIC Trichophyton interdigitale (standards).
In data set [18] the test system is Staphylococcus aureus CCM 4223. Briefly: Antibacterial microdilution broth MIC. The settings on record: CCM4223, 48 h, read-out: MIC Staphylococcus aureus (standards).
For data set [19], the system named is Staphylococcus aureus methicillin resistant CCM 4750. In words: Antibacterial microdilution broth MIC. Conditions: CCM4750, 48 h, read-out: MIC Staphylococcus aureus methicillin resistant (standards).
Data set [20] deals with Staphylococcus epidermidis 112-2016. In words: Antibacterial microdilution broth MIC. The settings on record: Staphylococcus epidermidis, 1122016, 48 h, read-out: MIC Staphylococcus epidermidis (standards).
Data set [21] deals with Enterococcus faecalis CCM 4224. Briefly: Antibacterial microdilution broth MIC. Conditions: CCM4224, 48 h, read-out: MIC Enterococcus faecalis (standards).
The test system of data set [22] is Escherichia coli CCM 3954. In words: Antibacterial microdilution broth MIC. The settings on record: CCM3954, 48 h, read-out: MIC Escherichia coli (standards).
The test system of data set [23] is Klebsiella pneumoniae 64-2016. In words: Antibacterial microdilution broth MIC. Conditions: Klebsiella pneumoniae, 642016, 48 h, read-out: MIC Klebsiella pneumonia (standards).
For data set [24], the system named is Serratia marcescens 62-2016. In words: Antibacterial microdilution broth MIC. Conditions: Serratia marcescens, 622016, 48 h, read-out: MIC Serratia marcescens (standards).
The subject of data set [25] is Pseudomonas aeruginosa CCM 3955. Briefly: Antibacterial microdilution broth MIC. Conditions: CCM3955, 48 h, read-out: MIC Pseudomonas aeruginosa (standards).
The subject of data set [26] is Candida albicans CCM 8320. In words: Antifungal microdilution broth MIC. The settings on record: CCM8320, 48 h, read-out: MIC Candida albicans (standards).
The subject of data set [27] is Aspergillus fumigatus ATCC 204305. In words: Antifungal microdilution broth MIC. Conditions: ATCC204305, 48 h, read-out: MIC Aspergillus fumigatus (standards).
Where [28] appears, read: Mycobacterium tuberculosis, H37RV, M. tuberculosis H37Rv, value in parentheses.
Where [29] appears, read: Mycobacterium tuberculosis, H37RV, pH 6.6, M. tuberculosis H37Rv, Middlebrook 7H9 pH 6.6.

Values after ≈ are worked out from the molar mass of the structure shown.

In the case of `Nc1cnc(C(=O)Nc2ccc(C(F)(F)F)cc2)cn1` [5-amino-N-(4-(trifluoromethyl)phenyl)pyrazine-2-carboxamide], in [1], the “MIC P. aeruginosa” value is given as 250 µM (≈ 70.6 µg/mL).
On to `Nc1nccnc1C(=O)Nc1ccccc1` [Compound 13, 3-Amino-N-phenylpyrazine-2-carboxamide], for which the MIC (commonly the lowest concentration that inhibits growth of the organism) in data set [2] (setting [28]) is greater than 467 µM; in data set [2] (setting [29]) it was greater than 100 µg/mL; in [3] (DSM43465), greater than 500 µg/mL; in [3] (DSM43465, value in parentheses) it was greater than 2330 µM. Moreover, in [4], the “inhibitory effects on ATR protein kinase” value is given as “inhibitory effects”. Besides, in [5], the log k was determined as 0.189.
Take `COc1ccc(NC(=O)c2nccnc2N)c(OC)c1` [Compound 17, 3-Amino-N-(2,4-dimethoxyphenyl)pyrazine-2-carboxamide]: the MIC in data set [2] (M. tuberculosis H37Rv, value in parentheses) was 45.6 µM; in data set [2] (setting [28]), 46 µM; in data set [2] (setting [29]) it was 12.5 µg/mL; in [3] (DSM43465), greater than 500 µg/mL; in data set [3] (DSM43465, value in parentheses), greater than 1820 µM. In addition, the log k in [5] turned out to be 0.37. Besides, the “solubility in the testing medium” value in data set [6] was “decreased solubility”. Further, in data set [7], the IC50 (commonly the concentration needed to halve the response being measured) at 24 h is greater than 50 µM. The “cytotoxicity against HepG2” value in [8] was “nontoxic”.
On to `NNC(=O)c1ccncc1` [INH, isoniazid, reference compound], for which the MIC in data set [2] (setting [29]) fell in the range of 0.1 to 0.2 µg/mL; in [3] (DSM43465), 7.81 to 15.6 µg/mL; in [11] it was 1.95 to 3.91 µg/mL (≈ 14.2 to 28.5 µM). Also, the “MIC M. kansasii” value in data set [9] was in the range of 3.13 to 12.5 µg/mL. Moreover, the “MIC M. avium” value in data set [10] was in the range of 6.25 to 12.5 µg/mL. Also, the “MIC M. smegmatis” value in data set [3] fell in the range of 7.81 to 15.62 µg/mL.
Take `C[C@@H]1[C@H](O)[C@@H](C)/C=C/C=C/C=C/C=C/C=C/C=C/C=C/[C@H](O[C@@H]2O[C@H](C)[C@@H](O)[C@H](N)[C@@H]2O)C[C@@H]2O[C@](O)(C[C@@H](O)C[C@@H](O)[C@H](O)CC[C@@H](O)C[C@@H](O)CC(=O)O[C@H]1C)C[C@H](O)[C@H]2C(=O)O` [amphotericin B]: the MIC was determined as 1 µg/mL (≈ 1.08 µM) in data set [12]; 0.5 µg/mL (≈ 0.541 µM) in [13]; 1 µg/mL (≈ 1.08 µM) in data set [14]; 8 µg/mL (≈ 8.66 µM) in [15]; 0.5 µg/mL (≈ 0.541 µM) in data set [16]; 2 µg/mL (≈ 2.16 µM) in data set [17].
For the compound `O=C(O)c1cn(C2CC2)c2cc(N3CCNCC3)c(F)cc2c1=O` [ciprofloxacin], the MIC is 0.0625 to 0.125 µg/mL in data set [3] (DSM43465); 0.00781 to 0.0156 µg/mL (≈ 0.0236 to 0.0472 µM) in data set [11]; 0.128 to 0.256 µg/mL (≈ 0.386 to 0.773 µM) in [18]; 0.128 µg/mL (≈ 0.386 µM) in [19]; greater than 1.02 µg/mL in data set [20]; 0.512 µg/mL (≈ 1.55 µM) in [21]. In addition, the MIC is 0.008 µg/mL (≈ 0.0241 µM) in [22], greater than 1.02 µg/mL in data set [23], 0.256 µg/mL (≈ 0.773 µM) in [24] and 0.128 µg/mL (≈ 0.386 µM) in data set [25].
`C[C@@H](c1ncncc1F)[C@](O)(Cn1cncn1)c1ccc(F)cc1F` [voriconazole]: the MIC in data set [26] was greater than 16 µg/mL; in data set [12], 0.5 µg/mL (≈ 1.43 µM); in data set [13], 8 µg/mL (≈ 22.9 µM); in [14] it was greater than 16 µg/mL; in data set [15] it was greater than 16 µg/mL; in [16], greater than 16 µg/mL. In addition, the MIC was greater than 16 µg/mL in [17] and 1 µg/mL (≈ 2.86 µM) in [27].
